Results reported in ChEMBL document CHEMBL1201862, “PubChem BioAssay data set” (2004).
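Protocol summary: plate cells (96-well), add compound at 5 concentrations, incubate 48 h, interpolate endpoints linearly. GI50 = concentration required for 50% inhibition of growth.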 Activity calls are given as the source filed them. Cut-off read from the data, not from the text of the source: active = GI50 up to about 1.1 µM and inactive = higher.

Assays:
Assay in all cases: growth of human tumour cells (NCI), 48 h
[1] = test system: 786-0
[2] = test system: ACHN
[3] = test system: EKVX
[4] = test system: HCT-116
[5] = test system: HCT-15
[6] = test system: KM12
[7] = test system: LOX IMVI
[8] = test system: MDA-N
[9] = test system: NCI-H23
[10] = test system: OVCAR-8
[11] = test system: RPMI-8226
[12] = test system: SF-539
[13] = test system: SK-MEL-28
[14] = test system: SK-MEL-2
[15] = test system: SK-MEL-5
[16] = test system: SK-OV-3
[17] = test system: SNB-19
[18] = test system: SR
[19] = test system: TK-10
[20] = test system: U-251

SMILES	GI50 [1]	GI50 [2]	GI50 [3]	GI50 [4]	GI50 [5]	GI50 [6]	GI50 [7]	GI50 [8]	GI50 [9]	GI50 [10]	GI50 [11]	GI50 [12]	GI50 [13]	GI50 [14]	GI50 [15]	GI50 [16]	GI50 [17]	GI50 [18]	GI50 [19]	GI50 [20]
O=C(O)c1nc2cc(C(F)(F)F)ccc2[nH]c1=O	> 100 µM (inactive)	> 100 µM (inactive)	> 100 µM (inactive)	> 100 µM (inactive)	> 100 µM	> 100 µM (inactive)	> 100 µM (inactive)	> 100 µM (inactive)	> 100 µM (inactive)	> 100 µM (inactive)	> 100 µM (inactive)	> 100 µM (inactive)	> 100 µM (inactive)	> 100 µM (inactive)	> 100 µM (inactive)	> 100 µM (inactive)	> 100 µM (inactive)	> 100 µM (inactive)	> 100 µM (inactive)	> 100 µM (inactive)
Cc1ccc(C)n1-n1c(-c2ccccc2)n[nH]c1=O	> 100 µM (inactive)	> 100 µM (inactive)	> 100 µM (inactive)	> 100 µM (inactive)	> 100 µM	34.3 µM (inactive)	> 100 µM (inactive)	24.8 µM (inactive)		> 100 µM (inactive)	> 100 µM (inactive)		> 100 µM (inactive)	> 100 µM (inactive)	> 100 µM (inactive)	> 100 µM (inactive)	> 100 µM (inactive)	51.9 µM (inactive)	> 100 µM (inactive)	> 100 µM (inactive)
CCOC(=O)/C(C(=S)Nc1ccccc1)=C(/N)N1CCCC1	> 100 µM (inactive)	> 100 µM (inactive)	> 100 µM (inactive)	65.5 µM (inactive)	> 100 µM	61.1 µM (inactive)	> 100 µM (inactive)	31 µM (inactive)	> 100 µM (inactive)	> 100 µM (inactive)	> 100 µM (inactive)	> 100 µM (inactive)	> 100 µM (inactive)	> 100 µM (inactive)	> 100 µM (inactive)		50.2 µM (inactive)	> 100 µM (inactive)	> 100 µM (inactive)	61.2 µM (inactive)
c1ccc(CNc2nncc3[nH]cnc23)cc1	> 100 µM (inactive)	> 100 µM (inactive)	> 100 µM (inactive)	> 100 µM (inactive)	> 100 µM	> 100 µM (inactive)	88.9 µM (inactive)	> 100 µM (inactive)	> 100 µM (inactive)	> 100 µM (inactive)	> 100 µM (inactive)	> 100 µM (inactive)	> 100 µM (inactive)	> 100 µM (inactive)	> 100 µM (inactive)	> 100 µM (inactive)		> 100 µM (inactive)	> 100 µM (inactive)	> 100 µM (inactive)
O=C1CCCc2cc3c(cc21)CC1(C3)Cc2cc3c(cc2C1)C(=O)CCC3	2.58 µM (inactive)	2.86 µM (inactive)	5.48 µM (inactive)	0.706 µM (active)	0.662 µM	0.493 µM (active)	1.48 µM (inactive)	0.214 µM (active)	2.2 µM (inactive)	3.04 µM (inactive)	0.746 µM (active)	1.12 µM (active)	3.23 µM (inactive)	1.57 µM (inactive)	0.532 µM (active)	3.52 µM (inactive)	4.58 µM (inactive)	0.106 µM (active)	1.81 µM (inactive)	1.64 µM (inactive)
O=C(NC12CC3CC(CC(C3)C1)C2)n1cnc2cncnc21	50.1 µM (inactive)	34.8 µM (inactive)	37.6 µM (inactive)	32.7 µM (inactive)	27.7 µM	30.8 µM (inactive)	25.8 µM (inactive)	33.5 µM (inactive)	37.8 µM (inactive)	30.1 µM (inactive)	22.5 µM (inactive)	25.1 µM (inactive)	> 100 µM (inactive)	18.2 µM (inactive)	16.1 µM (inactive)	17.8 µM (inactive)	93.3 µM (inactive)	24.4 µM (inactive)	30.2 µM (inactive)	35.3 µM (inactive)
Cc1cc(C)nc(NS(=O)(=O)c2ccc(NNc3c4ccccc4nc4c(C(=O)Nc5ccc(S(=O)(=O)Nc6cc(C)on6)cc5)cccc34)cc2)n1	51.6 µM (inactive)	31.3 µM (inactive)	19.2 µM (inactive)	31.3 µM (inactive)	51.1 µM	39.4 µM (inactive)	32.3 µM (inactive)	44.2 µM (inactive)	46.8 µM (inactive)	35.6 µM (inactive)	42.9 µM (inactive)	34.9 µM (inactive)		22.7 µM (inactive)	31.3 µM (inactive)	29 µM (inactive)	48 µM (inactive)	24.9 µM (inactive)	54.1 µM (inactive)	26.7 µM (inactive)
CC(C)(C)C1CCC2c3c([nH]c4ccccc34)C3C(=O)N(c4cc(Cl)ccc4Cl)C(=O)C3C2C1 (stereo not given)	> 100 µM (inactive)	> 100 µM (inactive)	> 100 µM (inactive)	> 100 µM (inactive)	> 100 µM		38.8 µM (inactive)	> 100 µM (inactive)	> 100 µM (inactive)	52.6 µM (inactive)	> 100 µM (inactive)	> 100 µM (inactive)		> 100 µM (inactive)	> 100 µM (inactive)	> 100 µM (inactive)	> 100 µM (inactive)	> 10 µM (inactive)	> 100 µM (inactive)	> 10 µM (inactive)
CCCCCCc1cc2cc(C(=O)NCc3ccccc3)c(=N)oc2cc1O	> 100 µM (inactive)	> 100 µM (inactive)	> 100 µM (inactive)	> 100 µM (inactive)	> 100 µM	> 100 µM (inactive)	> 100 µM (inactive)	> 100 µM (inactive)	> 100 µM (inactive)	> 100 µM (inactive)	> 100 µM (inactive)	> 100 µM (inactive)	> 100 µM (inactive)	> 100 µM (inactive)	> 100 µM (inactive)	> 100 µM (inactive)	> 100 µM (inactive)	> 100 µM (inactive)		> 100 µM (inactive)
CCOC(=O)C(=O)C(CCC(=O)c1ccc2ccccc2c1O)C(=O)OCC (stereo not given)	> 100 µM (inactive)	> 100 µM (inactive)	> 100 µM (inactive)	> 100 µM (inactive)	> 100 µM	> 100 µM (inactive)	> 100 µM (inactive)	> 100 µM (inactive)	> 100 µM (inactive)	> 100 µM (inactive)	> 100 µM (inactive)	> 100 µM (inactive)	> 100 µM (inactive)	> 100 µM (inactive)	> 100 µM (inactive)	> 100 µM (inactive)	> 100 µM (inactive)	> 100 µM (inactive)		> 100 µM (inactive)
C=C/C(C)=C\CC1[C@](C)(O)CC[C@H]2C(C)(C)C(=O)CC[C@]12C (stereo not given in full)	> 100 µM (inactive)	> 100 µM (inactive)	> 100 µM (inactive)	47.5 µM (inactive)	51.9 µM	85.5 µM (inactive)	93.8 µM (inactive)	96.4 µM (inactive)	40.6 µM (inactive)	> 100 µM (inactive)	29 µM (inactive)	> 100 µM (inactive)	> 100 µM (inactive)	> 100 µM (inactive)	44.4 µM (inactive)		> 100 µM (inactive)	24.6 µM (inactive)	> 100 µM (inactive)	> 100 µM (inactive)
COCCOC(=O)c1c(C)[n+]([O-])c2cc(Cl)c(Cl)cc2[n+]1[O-]	22.6 µM (inactive)	12.7 µM (inactive)	17.1 µM (inactive)		8.71 µM	10.8 µM (inactive)	13.5 µM (inactive)	23.2 µM (inactive)	19.8 µM (inactive)	7.06 µM (inactive)	4.69 µM (inactive)	22.6 µM (inactive)	28.4 µM (inactive)	25.3 µM (inactive)	7.6 µM (inactive)	17.9 µM (inactive)	40.8 µM (inactive)	4.76 µM (inactive)	23.2 µM (inactive)	9.82 µM (inactive)
COC(=O)CC1c2ccccc2N2C(=O)Cc3c([nH]c4ccccc34)C12 (stereo not given)	58.6 µM (inactive)	> 100 µM (inactive)	> 100 µM (inactive)	> 100 µM (inactive)	> 100 µM	> 100 µM (inactive)	> 100 µM (inactive)	> 100 µM (inactive)	> 100 µM (inactive)	> 100 µM (inactive)	> 100 µM (inactive)		> 100 µM (inactive)	> 100 µM (inactive)	> 100 µM (inactive)	> 100 µM (inactive)	> 100 µM (inactive)	> 100 µM (inactive)	> 100 µM (inactive)	> 100 µM (inactive)
COc1ccc2[nH]c(CCNC(=O)c3cc([N+](=O)[O-])cc([N+](=O)[O-])c3)cc2c1	21.2 µM (inactive)			> 100 µM (inactive)	> 100 µM	> 100 µM (inactive)	64.1 µM (inactive)	> 100 µM (inactive)	47.9 µM (inactive)	44.5 µM (inactive)	> 100 µM (inactive)	29.8 µM (inactive)	> 100 µM (inactive)	65.8 µM (inactive)	> 100 µM (inactive)	41 µM (inactive)	35.6 µM (inactive)	> 100 µM (inactive)	46.8 µM (inactive)	14.7 µM (inactive)
CCC(C)C(NC(=O)c1cccc2c(=O)c3ccccc3[nH]c12)C(=O)O (stereo not given)	> 100 µM (inactive)	86.7 µM (inactive)	> 100 µM (inactive)	> 100 µM (inactive)	> 100 µM	61.1 µM (inactive)	> 100 µM (inactive)	> 100 µM (inactive)	> 100 µM (inactive)	> 100 µM (inactive)	57.1 µM (inactive)		> 100 µM (inactive)	> 100 µM (inactive)	> 100 µM (inactive)	> 100 µM (inactive)	99.5 µM (inactive)	> 100 µM (inactive)	> 100 µM (inactive)	73.5 µM (inactive)
